Read-outs that look alike come from different tables or passages of the source.

For data set [1], the system named is PANK2 silenced human neuroblastoma IMR32 cells (PANK2−/−). As to the kind of experiment: Coenzyme A assay in PANK2 silenced cells (LC-MS quantification of free CoA). Type of data set: cell-based. Conditions: compound added twice (24 h + 24 h), relative to 0.1% DMSO controls. A digest of the protocol: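 PANK2 shRNA-silenced IMR32 neuroblastoma cells were treated with compound (0.1% DMSO) for 24 h, then re-dosed with fresh compound for a further 24 h at 37 °C. TFA extracts of 1×10^6 cells were assayed for free CoA by LC-MS/MS (MRM 768.1→261.6/136.1). Results are given as fold change versus DMSO controls.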

Data set [2] can be described thus: Stability in human hepatocytes. Type of data set: in vitro ADME. The protocol: (§1) Stability in hepatocytes for select compounds disclosed in the application was evaluated in two species (mouse and human) according to the following procedure. Compounds and positive control samples were dissolved in 100% DMSO at 5 mM. Cryopreserved hepatocytes were thawed and resuspended in Hepatocyte Basal Medium (HBM-Lonza CC-3199) supplemented with CC-4182 (complete hepatocyte culture medium). Test compounds were diluted into cell suspension (1 million cells/ml) from the stock solutions to have a test compound concentration of 5 μM (0.1% DMSO). Incubation was performed in 24-well plates, at 37° C. in a DUBNOFF water bath, under low shaking. Each compound was tested at 6 time points, in duplicates (0, 15, 30, 60, 120 and 240 min). At each time point, an aliquot of 120 μl was taken and transferred to a 96-well deep plate. The reaction was stopped with the addition of one volume of 100% acetonitrile plus 0.1% formic acid and the appropriate internal standard. Then samples were centrifuged at 1100×g for 30 min at +4° C. and supernatants were transferred to a new 96-deepwell plate. Samples were evaporated under N2 and reconstituted in H2O/ACN 0.1% Formic Acid (98:2). Analysis was performed without a calibration curve (Acquity UPLC-Waters; Sciex API4000). Time 0 was obtained adding acetonitrile before addition of the test compound. […] The half-life (t1/2) expressed in hours is derived using Equation 1 as shown in Example 64.

Data set [3] in a line: Stability in mouse plasma. The class given is in vitro ADME. A digest of the protocol: (§2)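 Test compound at 3 μM (0.1% DMSO) was incubated in mouse or human plasma at 37 °C and sampled in duplicate at 0, 10, 20, 30, 40 and 60 min. Reactions were stopped with acetonitrile/formic acid containing internal standard. Remaining parent was measured by UPLC-MS/MS without a calibration curve.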

Data set [4] in a line: Stability in human plasma. The class given is in vitro ADME. The note with it: 37° C. A digest of the protocol:
as §2

The nature of data set [5]: Stability in mouse hepatocytes. Type of data set: in vitro ADME. The protocol: as §1
Where [6] appears, read: t1/2, Human Hepatocytes, Diastereoisomer A.
The mark [7] stands for this setting: t1/2, Human Hepatocytes, Diastereoisomer B.
Setting [8] is: human, plasma, Diastereoisomer A (upfield shift in 31P NMR), read-out: t1/2, Human Plasma, Diastereoisomer A (converted).
Where [9] appears, read: human, plasma, Diastereoisomer B, read-out: t1/2, Human Plasma, Diastereoisomer B (converted).
Where [10] appears, read: t1/2, Mouse Hepatocytes, Diastereoisomer A.
[11] abbreviates: t1/2, Mouse Hepatocytes, Diastereoisomer B.
The mark [12] stands for this setting: Diastereoisomer A (upfield shift in 31P NMR), 5 μM, 1 million cells/ml, 37° C., human hepatocytes, read-out: t1/2, Human Hepatocytes, Diastereoisomer A (converted).
Setting [13] is: Diastereoisomer B, 5 μM, 1 million cells/ml, 37° C., human hepatocytes, read-out: t1/2, Human Hepatocytes, Diastereoisomer B (converted).

Take `COC(=O)CCNC(=O)[C@@H]1OP(=O)(OCOC(=O)c2scnc2C)OCC1(C)C` (stereo partly drawn) [Compound No. 2-139, (((4R)-4-((3-methoxy-3-oxopropyl)carbamoyl)-5,5-dimethyl-2-oxido-1,3,2-dioxaphosphinan-2-yl)oxy)methyl 4-methylthiazole-5-carboxylate]: in data set [1], the “PANK2−/− CoA (Fold Increase): fold increase in Coenzyme A (CoA) levels relative to controls” value turned out to be 44.21 Fold Increase. Moreover, the values for the half-life at 5 µM in data set [2] (setting [6]) and in data set [2] (setting [7]) were 30.6 min and 15.6 min, respectively.
With `COC(=O)CCNC(=O)[C@@H]1OP(=O)(OCOC(=O)c2ccc(CN3CCCC3)cc2)OCC1(C)C` (stereo partly drawn) [Compound No. 76, (((4R)-4-((3-methoxy-3-oxopropyl)carbamoyl)-5,5-dimethyl-2-oxido-1,3,2-dioxaphosphinan-2-yl)oxy)methyl 4-(pyrrolidin-1-ylmethyl)benzoate], the “PANK2−/− CoA (Fold Increase): fold increase in Coenzyme A (CoA) levels relative to controls” value in data set [1] was 79.95 Fold Increase. Further, the half-life at 3 µM is less than 9.6 min in data set [3] (mouse, plasma); less than 9.6 min in data set [4] (setting [8]); less than 9.6 min in data set [4] (setting [9]). In addition, in data set [3] (mouse, plasma, 3 µM), the “t1/2, Mouse Plasma, Diastereoisomer B” value is less than 9.6 min. Moreover, the half-life at 5 µM in data set [5] (setting [10]) was less than 15 min; in data set [5] (setting [11]), less than 15 min; in data set [2] (setting [6]), 31.2 min; in data set [2] (setting [7]), less than 15 min.
For the molecule `COC(=O)CCNC(=O)[C@@H]1OP(=O)(Oc2ccc(F)cc2)OCC1(C)C` (stereo partly drawn) [2-118, methyl 3-((4R)-2-(4-fluorophenoxy)-5,5-dimethyl-2-oxido-1,3,2-dioxaphosphinane-4-carboxamido)propanoate], the “PANK2−/− CoA (Fold Increase): fold increase in Coenzyme A (CoA) levels relative to controls” value in data set [1] was 1.38 Fold Increase. For the same molecule, the half-life at 5 µM in data set [2] (setting [12]) is 33 min; in data set [2] (setting [13]), 36 min.
With `COC(=O)[C@H](C)NP1(=O)OCC(C)(C)[C@H](C(=O)NCCC(=O)OCc2cc(C)on2)O1` (stereo partly drawn) [compound 21, (2S)-methyl 2-(((4R)-5,5-dimethyl-4-((3-((5-methylisoxazol-3-yl)methoxy)-3-oxopropyl)carbamoyl)-2-oxido-1,3,2-dioxaphosphinan-2-yl)amino)propanoate], the half-life at 5 µM in data set [5] (setting [10]) was less than 15 min; in data set [5] (setting [11]) it was less than 15 min; in data set [2] (setting [6]), 70.8 min; in data set [2] (setting [7]), 40.2 min.
Regarding `COC(=O)CCNC(=O)[C@@H]1OP(=O)(NCC(=O)OCc2ccccc2)OCC1(C)C` (stereo partly drawn) [compound 118, methyl 3-((4R)-2-((2-(benzyloxy)-2-oxoethyl)amino)-5,5-dimethyl-2-oxido-1,3,2-dioxaphosphinane-4-carboxamido) propanoate], the “PANK2−/− CoA (Fold Increase): fold increase in Coenzyme A (CoA) levels relative to controls” value in data set [1] was determined as 2.96 Fold Increase. Also, the half-life at 3 µM in data set [3] (Diastereoisomer A (upfield shift in 31P NMR), 3 μM, 37° C., mouse plasma, read-out: t1/2, Mouse Plasma, Diastereoisomer A) was less than 9.6 min; in data set [4] (Diastereoisomer A (upfield shift in 31P NMR), read-out: t1/2, Human Plasma, Diastereoisomer A (converted)) it was greater than 60 min. The “t1/2, Mouse Plasma, Diastereoisomer B” value in data set [3] (Diastereoisomer B, 3 μM, 37° C., mouse plasma) is less than 9.6 min. Also, in data set [4] (Diastereoisomer B, 3 μM), the “t1/2, Human Plasma, Diastereoisomer B” value was greater than 60 min. Moreover, the half-life at 5 µM in data set [5] (Diastereoisomer A (upfield shift in 31P NMR), 5 μM, 1 million cells/ml, 37° C., mouse hepatocytes, read-out: t1/2, Mouse Hepatocytes, Diastereoisomer A (converted)) is less than 15 min; in data set [5] (Diastereoisomer B, 5 μM, 1 million cells/ml, 37° C., mouse hepatocytes, read-out: t1/2, Mouse Hepatocytes, Diastereoisomer B (converted)), less than 15 min. Besides, the half-life was 25.8 min in data set [2] (setting [12]) and less than 15 min in data set [2] (setting [13]).
Take `COC(=O)CCNC(=O)[C@@H]1OP(=O)(OCOC(C)=O)OCC1(C)C` (stereo partly drawn) [Compound No. 68, Methyl 3-((4R)-2-(acetoxymethoxy)-5,5-dimethyl-2-oxido-1,3,2-dioxaphosphinane-4-carboxamido)propanoate]: the “PANK2−/− CoA (Fold Increase): fold increase in Coenzyme A (CoA) levels relative to controls” value in data set [1] was 125.97 Fold Increase. The half-life at 5 µM in data set [5] (setting [10]), in data set [5] (setting [11]), in data set [2] (setting [6]) and in data set [2] (setting [7]) was less than 15 min throughout.
Take `COC(=O)CCNC(=O)[C@@H]1OP(=O)(OCOC(=O)NCCSC(=O)C(C)(C)C)OCC1(C)C` (stereo partly drawn) [2-143, methyl 3-((4R)-5,5-dimethyl-2-oxido-2-((((2-(pivaloylthio)ethyl)carbamoyl)oxy)methoxy)-1,3,2-dioxaphosphinane-4-carboxamido)propanoate]: in data set [1], the “PANK2−/− CoA (Fold Increase): fold increase in Coenzyme A (CoA) levels relative to controls” value was 1.39 Fold Increase. Moreover, the half-life at 5 µM in data set [2] (setting [6]) is 25.2 min; in data set [2] (setting [7]), 19.2 min.
Consider `COC(=O)[C@H](C)N[P@@]1(=O)OCC(C)(C)[C@H](C(=O)NCCC(=O)OCc2cn(C)cn2)O1` [compound 22, methyl ((2R,4R)-5,5-dimethyl-4-((3-((1-methyl-1H-imidazol-4-yl)methoxy)-3-oxopropyl)carbamoyl)-2-oxido-1,3,2-dioxaphosphinan-2-yl)-L-alaninate], for which the values for the half-life at 5 µM in data set [5] (setting [10]) and in data set [2] (setting [6]) were 37.2 min and greater than 240 min, respectively.
For `COC(=O)CCNC(=O)[C@@H]1O[P@](=O)(OCOC(=O)NCCOC(=O)[C@@H](NC(=O)OCc2ccccc2)C(C)C)OCC1(C)C` (single isomer, unassigned) [2-161], in data set [1], the “PANK2−/− CoA (Fold Increase): fold increase in Coenzyme A (CoA) levels relative to controls” value was determined as 71.14 Fold Increase. Further, the half-life at 5 µM in data set [5] (setting [10]) is less than 15 min; in data set [2] (setting [6]), 25.8 min.
For the molecule `COC(=O)CCNC(=O)[C@@H]1O[P@@](=O)(Oc2ccc(C(F)(F)F)cc2)OCC1(C)C` [2-119, methyl 3-((2S,4R)-5,5-dimethyl-2-oxido-2-(4-(trifluoromethyl)phenoxy)-1,3,2-dioxaphosphinane-4-carboxamido)propanoate], in data set [1], the “PANK2−/− CoA (Fold Increase): fold increase in Coenzyme A (CoA) levels relative to controls” value was found to be 1.67 Fold Increase. Also, in data set [2] (setting [12]), the half-life at 5 µM was 30.6 min.
Take `COC(=O)CCNC(=O)[C@@H]1OP(=O)(OCOC(=O)c2ccns2)OCC1(C)C` (stereo partly drawn) [Compound No. 2-140, (((4R)-4-((3-methoxy-3-oxopropyl)carbamoyl)-5,5-dimethyl-2-oxido-1,3,2-dioxaphosphinan-2-yl)oxy)methyl isothiazole-5-carboxylate]: in data set [1], the “PANK2−/− CoA (Fold Increase): fold increase in Coenzyme A (CoA) levels relative to controls” value is given as 37.02 Fold Increase. For the same molecule, the half-life at 5 µM in data set [2] (setting [6]) and in data set [2] (setting [7]) was less than 15 min in each case.
For `C[C@H](NP1(=O)OCC(C)(C)[C@H](C(=O)NCCC(=O)OC(C)(C)C)O1)C(=O)OCCc1ccccc1` (stereo partly drawn) [compound 33, tert-butyl 3-((4R)-5,5-dimethyl-2-oxido-2-(((S)-1-oxo-1-phenethoxypropan-2-yl)amino)-1,3,2-dioxaphosphinane-4-carboxamido)propanoate], the “PANK2−/− CoA (Fold Increase): fold increase in Coenzyme A (CoA) levels relative to controls” value in data set [1] turned out to be 0.8 Fold Increase. Moreover, the half-life at 3 µM in data set [3] (mouse, plasma) was less than 9.6 min; in data set [4] (setting [8]) it was greater than 60 min; in data set [4] (setting [9]) it was greater than 60 min. Further, in data set [3] (mouse, plasma, 3 µM), the “t1/2, Mouse Plasma, Diastereoisomer B” value was less than 9.6 min.
`CC(C)(C)OC(=O)CCNC(=O)[C@@H]1OP(=O)(OCOC(=O)C(C)(C)C)OCC1(C)C` (stereo partly drawn) [Compound No. 75, (((4R)-4-((3-(tert-butoxy)-3-oxopropyl)carbamoyl)-5,5-dimethyl-2-oxido-1,3,2-dioxaphosphinan-2-yl)oxy)methyl pivalate]: the “PANK2−/− CoA (Fold Increase): fold increase in Coenzyme A (CoA) levels relative to controls” value in data set [1] is given as 1.52 Fold Increase. Further, the half-life at 3 µM was less than 9.6 min in data set [3] (mouse, plasma); greater than 60 min in data set [4] (setting [8]); less than 9.6 min in data set [4] (setting [9]). Besides, in data set [3] (mouse, plasma, 3 µM), the “t1/2, Mouse Plasma, Diastereoisomer B” value is less than 9.6 min.
On to `COC(=O)CCNC(=O)[C@@H]1O[P@@](=O)(OCOC(=O)NCCOC(=O)[C@@H](NC(=O)OCc2ccccc2)C(C)C)OCC1(C)C` (single isomer, unassigned) [2-160], for which the “PANK2−/− CoA (Fold Increase): fold increase in Coenzyme A (CoA) levels relative to controls” value in data set [1] was determined as 7.99 Fold Increase. For the same molecule, the half-life at 5 µM was less than 15 min in data set [5] (setting [10]) and 36.6 min in data set [2] (setting [6]).
